{
  "source": "patent US20120129872A1",
  "about": "“FUSED HETEROARYL INHIBITORS OF PRO-MATRIX METALLOPROTEINASE ACTIVATION” (priority 2010, published 2012)",
  "key": {"[1]": {"target": "T1, MMP9 mediated gelatinase activity (Rattus norvegicus, UniProt P50282)", "T1 construct": "from tissue; host or cells: liver sections of female Lewis rats", "T1 sequence (P50282 108-708)": "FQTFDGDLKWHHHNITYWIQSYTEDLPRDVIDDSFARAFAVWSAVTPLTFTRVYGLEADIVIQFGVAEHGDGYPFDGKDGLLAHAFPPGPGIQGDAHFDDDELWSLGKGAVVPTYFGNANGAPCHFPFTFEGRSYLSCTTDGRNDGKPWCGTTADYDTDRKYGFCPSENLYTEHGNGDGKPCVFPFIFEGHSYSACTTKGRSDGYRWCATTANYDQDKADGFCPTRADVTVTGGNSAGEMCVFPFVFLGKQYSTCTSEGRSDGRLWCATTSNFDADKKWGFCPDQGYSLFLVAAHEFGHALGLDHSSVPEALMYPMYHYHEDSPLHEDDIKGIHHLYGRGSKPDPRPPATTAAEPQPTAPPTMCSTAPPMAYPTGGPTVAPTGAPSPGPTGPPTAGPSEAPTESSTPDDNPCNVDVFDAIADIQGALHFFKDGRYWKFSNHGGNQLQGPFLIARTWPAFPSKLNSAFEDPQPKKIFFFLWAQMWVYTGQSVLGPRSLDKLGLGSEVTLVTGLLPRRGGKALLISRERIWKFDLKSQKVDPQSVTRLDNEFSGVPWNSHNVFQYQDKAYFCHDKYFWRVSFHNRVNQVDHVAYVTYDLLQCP", "experiment": "In situ zymography of gelatinase activity in livers of SCW-induced rats", "assay_type": "in vivo", "settings": "for Intensity, Rat 1 / Intensity, Rat 2 / Intensity, Rat 3 / Intensity, Mean: liver", "source_text": "In situ zymography provides an alternative approach to assess active MMP9 in tissues (Frederiks). Tissue sections are overlain with fluorescene-conjugated gelatin wherein the conjugation is sufficiently dense to cause the fluorescene to be dye-quenched (DQ). Proteolytic degradation of the DQ-gelatin releases the fluorescene from the quenching effect giving rise to bright green fluorescence at the site of degradation. Because in situ zymography requires the use of frozen sections, calcified tissues are problematic. However, an additional feature of the SCW arthritis model is the development of hepatic granulomatous disease (J Immunol; 1986; 137:2199-2209), and MMP9 reportedly plays a role in macrophage recruitment in the granulomas response to mycobacteria (Infect Immun; 2006; 74:6135-6144). Consequently, granulomatous livers from SCW-treated rats were assessed for active MMP9 by in situ zymography.\nAs described above, Female Lewis (LEW/N) rats, 5-6 weeks of age (80-100 g) were injected (i.p.) with saline or SCW PG-PS. On day 28, when the granulomatous response was well established, animals were sacrificed and livers were frozen in OCT cryo-sectioning medium and […] sections were cut on a Cryome HM 500 M cryotome and mounted on glass microscope slides. Sections were air dried briefly. MMP9 was confirmed as the source of the gelatinase activity in the liver by treating liver sections with monoclonal antibodies directed against the active site of the two major gelatinases MMP9 and MMP2. Liver sections overlain with 50 μL of 100 μg/mL neutralizing mouse monoclonal antibodies directed against MMP9 (Calbiochem, clone 6-6B), or MMP2 (Millipore, clone CA-4001), or with PBS for 1 hr at room temperature. Tissues were rinsed once with PBS, blotted, and briefly air dried and then overlain with DQ-gelatin (Invitrogen) dissolved to 1 mg/mL in deionized water and then diluted 1:10 in 1% wt/vol low gelling point agarose type VII (Sigma) in PBS. The sections were covered with coverslips, incubated in the dark at room temperature for 20 min, and imaged on an Olympus IX80 inverted microscope fitted with fluorescence optics, using SlideBook™ imaging software (Intelligent Imaging Innovations, Inc., Philadelphia, Pa.; version 5.0). Fluorescence intensity was determined (Table 8). When compared to a saline-treated rat, gelatinase activity was abundantly expressed in granulomatous liver sections obtained from a rat with SCW arthritis.\nNext, liver in situ zymography was used to assess the relative presence of active MMP9 in rats dosed with vehicle vs. Compound-α. Female Lewis (LEW/N) rats, 5-6 weeks of age (80-100 g) were injected (i.p.) with saline or SCW PG-PS. Commencing on day 25, randomized groups of rats (n=3 rats/group) received vehicle or 20 or 50 mg/kg Compound-α BID by oral gavage. Vehicle consisted of an aqueous mixture containing 2% (v:v) N-methylpyrrolidone, 5% (v:v) glycerine, and 20% (w:v) captisol. Treatment continued daily through the morning of day 28. Four hrs after the AM dose on day 28, rats were sacrificed and livers assessed for active MMP9 by in situ zymography (Table 9). Gelatinase activity was increased markedly in SCW-induced rats, but activity was reduced by approximately 80% in animals treated with 50 mg/kg Compound-α."}, "SCW-induced arthritis": {"test_system": "SCW-induced arthritis", "experiment": "Efficacy in rats with SCW-induced arthritis (ankle thickness, clinical scores)", "assay_type": "in vivo, rat", "settings": "5, 20, 50 mg/kg BID", "source_text": "A polyarthritis can be induced in female Lewis rats following i.p. administration of streptococcal cell wall (SCW) […] (PG-PS) (J Exp Med 1977; 146:1585-1602). The model has an acute phase (days 3-7) that is complement and neutrophil-dependent and that resolves. A chronic erosive phase begins at about day ten and is dependent on the development of specific T cell immunity to the PG-GS, which resists digestion and remains present in synovial macrophages for months. Like rheumatoid arthritis, SCW-induced arthritis is reduced by TNF inhibitors, and the dependence of SCW-induced arthritis on macrophages (Rheumatology; 2001; 40:978-987) and the strong association of rheumatoid arthritis severity with synovial-tissue macrophage counts (Ann Rheum Dis; 2005; 64:834-838) makes SCW-arthritis an attractive model for testing potential therapeutic agents. SCW PG-PS 10S (Beckton Dickinson Cat#210866) suspended in saline was vortexed for 30 seconds and sonicated for 3 min with a probe type sonicator prior to injection. […]\nTo induce arthritis, Female Lewis (LEW/N) rats, 5-6 weeks of age (80-100 g) were injected (i.p.) with SCW PG-PS as described above. […] Each ankle was measured 3 times and averaged, and treatment groups were randomized based on ankle thickness (Table 6). […]"}},
  "data": [
    {"smiles": "Cc1nc(C)c(-c2csc(Nc3cc(S(N)(=O)=O)ccc3OC(C)C)n2)s1", "note": "[Compound-α, 3-(2′,4′-Dimethyl-[4,5′]bithiazolyl-2-ylamino)-4-isopropoxy-benzenesulfonamide•HBr]", "values": [
      {"measurement": "Reduction of liver gelatinase activity", "setting": "[1]; 50 mg/kg BID Day 25-28", "result": "approximately 80%"},
      {"measurement": "Intensity, Rat 1", "setting": "[1]; 20 mg/kg BID Day 25-28", "result": 43.0, "unit": "RLU × 10^6"},
      {"measurement": "Intensity, Rat 2", "setting": "[1]; 20 mg/kg BID Day 25-28", "result": 69.0, "unit": "RLU × 10^6"},
      {"measurement": "Intensity, Rat 3", "setting": "[1]; 20 mg/kg BID Day 25-28", "result": 53.7, "unit": "RLU × 10^6"},
      {"measurement": "Intensity, Mean", "setting": "[1]; 20 mg/kg BID Day 25-28, n=3", "result": 55.2, "unit": "RLU × 10^6"},
      {"measurement": "Intensity, Rat 1", "setting": "[1]; 50 mg/kg BID Day 25-28", "result": 3.2, "unit": "RLU × 10^6"},
      {"measurement": "Intensity, Rat 2", "setting": "[1]; 50 mg/kg BID Day 25-28", "result": 25.6, "unit": "RLU × 10^6"},
      {"measurement": "Intensity, Rat 3", "setting": "[1]; 50 mg/kg BID Day 25-28", "result": 4.5, "unit": "RLU × 10^6"},
      {"measurement": "Intensity, Mean", "setting": "[1]; 50 mg/kg BID Day 25-28, n=3", "result": 11.1, "unit": "RLU × 10^6"},
      {"measurement": "Effect on ankle thickness measurements", "setting": "SCW-induced arthritis; Day 18-26", "result": "dose-dependent decrease in ankle thickness measurements"},
      {"measurement": "Effect on clinical score measurements", "setting": "SCW-induced arthritis; significant effects emerging at 20 mg/kg", "result": "dose dependent decrease in clinical score measurements"}
    ]}
  ]
}
